Values after ≈ are worked out from the molar mass of the structure shown. “Also recorded” adds a separate entry of the source.
Tests used:
[1] = system: Human ovarian carcinoma SKOV3; test: growth inhibition in vitro; type: cell-based
Procedure: (§1) As set forth in Table 7 below, all malignant tumors evaluated in tissue culture, endothelial cells and vascular smooth muscle cells were sensitive to inhibition. Thus, compound 1436 has application in the control of growth factor dependent proliferation of many types of tissue.
Using the assay described above, the anticancer effects of compound 1437 against several cancer lines was assessed.

[2] = effect on fasting blood glucose in mice; type: in vivo, mouse (male CD-1); settings: i.v.
Procedure: To study the effect of steroid administrator or the NHE responsible for secretion of insulin, several of the aminosterols from shark liver were administered to fasting mice. Male CD-1 mice were assigned to one of four treatment groups. Whole blood glucose was tested using glucometer (Lifescan Glucometer II and One Touch test strips). Statistical analysis was via one-way analysis of variance (ANOVA) followed by subsequent Bonferonni's t-test.

[3] = system: stage 59-60 Xenopus tadpole; test: Xenopus tadpole assay; settings: for tadpole response: about 1 hour
[4] = system: human microvascular cells; test: inhibition of endothelial cell cord formation in vitro; type: cell-based; as to effect on endothelial cord formation: key: +: Inhibition of angiogenesis; -: No inhibition of angiogenesis; Toxic; *: cell rounding @ 10 µg/ml
Description: Endothelial cells have the capacity in vitro to form tubular aggregates resembling capillaries in various early stages of formation. This conversion occurs under relatively specific conditions, in which essential growth factors along with an effective substratum are provided. It has been shown that both the interaction of growth factors with the endothelial cell and its attachment to a substratum activate the NHE. The activation of this exchanger is believed to be required for subsequent morphologic transformation of the endothelial cell into a multicellular tubular structure.
To assess the effect of compounds on the cord-like structures formed by human microvascular cells when plated in the presence of VEGF (Vascular Endothelial Growth Factor) and basic fibroblast growth factor on a collagen matrix, a standard cord formation assay was used.

[5] = system: chick embryo vitelline capillaries; test: chick embryo vitelline capillary regression assay; type: in vivo
Procedure: Using the chick embryo vitelline capillaries assay, compounds were tested for their ability to induce capillary regression. Each compound was applied in 0.1 ml of 15% Ficol 400 and PBS onto the embryo, and vascular regression was assessed after 60 minutes.
The 3-day chick embryo consists of an embryonic disc from which numerous vessels emerge and return, forming a "FIG. 8"-shaped structure--the embryo in the center with vascular loops extending outward over both poles. […] Following a lag period of around 15 minutes, the constriction of continuity between capillary and secondary vessels, generally on the "venous" side, was observed. Continued pulsatile blood flow progressed, resulting in a "swelling" of the blind tube, followed by a pinching off of the remaining connection and formation of an enclosed vascular sac resembling a "blood island." This process progressed until only the largest vessels remained intact.

[6] = system: Human melanoma WM 1167; test: cytotoxic activity against cancer cells; type: cell-based
[7] = system: Lewis lung carcinoma; test: cytotoxic activity against cancer cells; type: cell-based
[8] = system: human melanoma; test: effect on growth of human melanoma over time / mode of cell death; type: cell-based
[9] = system: C. albicans; test: antibiotic activity (MIC); type: cell-based; settings: Candida albicans; C. albicans; read-out: MIC
Description: (§2) Thus, it is possible to achieve an antimicrobial steroid with or without squalamine-like pharmacological activity.

[10] = system: E. coli; test: antibiotic activity (MIC); type: cell-based; settings: Escherichia coli; E. coli; read-out: MIC
Description: as §2

[11] = system: P. aerug; test: antibiotic activity (MIC); type: cell-based; settings: P. aerug; read-out: MIC
Description: as §2

[12] = system: S. aureus; test: antibiotic activity (MIC); type: cell-based; settings: Staphylococcus aureus; S. aureus; read-out: MIC
Description: as §2

[13] = system: B16 melanoma; test: suppression of growth of B16 melanoma in C57B mice; type: in vivo, mouse; settings: 10 mg/kg every 3 days alone, FIG. 12
Procedure: The growth of B16 melanoma in C57B mice is dependent upon neovascularization.
Using the growth of B16 melanoma cells in C57B mice, a recognized model for the evaluation of inhibitors of angiogenesis on the growth of cancers, the effects of subcutaneous, intraperitoneal and oral administration of squalamine were evaluated.
Based on the idea that tumor growth involves both the clonal expansion of a malignant cell along with the development of a supporting vascular supply, a combination of compound 1436 with squalamine was tested to determine whether it would achieve a synergistic effect on solid tumor growth. This concept was evaluated in the B16 melanoma model.
Animals were implanted with B16 melanoma followed by treatment with compound 1436 or 1256 administered in a combined schedule or separately. […] Thus, a combination of these two compounds achieves a therapeutic benefit in tumors dependent on neovascularization that may prevent metastatic spread.

[14] = system: Human colon carcinoma HT29; test: growth inhibition in vitro; type: cell-based; settings: HT29, 10 μg/ml
Description: as §1

[15] = system: Human colon carcinoma SW948; test: growth inhibition in vitro; type: cell-based; settings: SW948, 10 μg/ml
Description: as §1

[16] = system: Human coronary artery smooth muscle cells; test: growth inhibition in vitro; type: cell-based; settings: 10 μg/ml
Description: as §1

[17] = system: Human melanoma WM 1617; test: growth inhibition in vitro; type: cell-based; settings: WM 1617, 10 μg/ml
Description: as §1

[18] = system: Human microvascular endothelial cells; test: growth inhibition in vitro; type: cell-based; settings: 10 μg/ml
Description: as §1

[19] = system: Lewis lung carcinoma; test: growth inhibition in vitro; type: cell-based; settings: 10 μg/ml
Description: as §1

[20] = system: Murine B16 melanoma; test: growth inhibition in vitro; type: cell-based; settings: Murine B16 melanoma, 10 μg/ml
Description: as §1

[21] = system: Murine L1210 leukemia; test: growth inhibition in vitro; type: cell-based; settings: 10 μg/ml
Description: as §1

[22] = system: bovine pulmonary endothelial cells; test: growth inhibition in vitro; type: cell-based; settings: 10 μg/ml
Description: as §1

[23] = system: human umbilical venous endothelial cells; test: growth inhibition in vitro; type: cell-based; settings: 10 μg/ml
Description: as §1

[24] = system: L1210 lymphoblastic leukemia cells; test: mouse model of leukemia; type: in vivo; settings: highest dose (10 mg/kg every 3 days ip), FIG. 11
Description: C57B mice were inoculated with L1210 lymphoblastic leukemia cells at an inoculum that causes leukemia in 100% of animals.

[25] = system: HIV clinical isolate; test: inhibition of HIV replication in PHA-stimulated lymphocytes (HIV P-24 antigen Elisa); type: cell-based; settings: 20 μM
Description: (§3) Results are tabulated below.

[26] = viability of lymphocytes in HIV test; type: cell-based; settings: human
Description: as §3

[27] = system: human coronary artery smooth muscle; test: proliferation of human coronary artery smooth muscle in vitro; type: cell-based; settings: FIG. 15
Description: Aminosterols of the invention may also have utility in inhibiting the growth factor mediated proliferation of smooth muscle within the artery. Following coronary angioplasty, reocclusion commonly occurs, secondary to reparative proliferation of the vascular smooth muscle within the wall of the surgically manipulated blood vessel. This process generally takes place over the course of 7-10 days. To evaluate whether an agent could prevent the growth factor mediated proliferation of smooth muscle within the artery, compound 1436 was evaluated in vitro for its effect on the proliferation of human coronary artery smooth muscle. Results for compound 1436 are shown in FIG. 13, and those for squalamine are shown in FIG. 14, with FIG. 15 being a composite logarithmic plot.

[28] = effect on growth and weight gain of growing mice; type: in vivo, mouse (C57B)
Procedure: Animals were dosed QTD (i.p.) starting on Day 1. […] Animals receiving 5 mg/kg QTD experienced about a 50% reduction in growth, compared to untreated controls, while animals receiving 1 mg/kg QTD were affected by about 10%. […] They appeared very much like hypophysectamized animals might appear.

[29] = effect on arterial resistance in the rat; type: in vivo; settings: 5 mg/kg i.v.
Procedure: A 200-g rat was catheterized in the right carotid artery, and the compound was introduced over a ten-second period to a total dosage of 5 mg/kg. Within 30 seconds, the mean arterial pressure had fallen from about 100 mm Hg to about 70 mm Hg, with a marked reduction in pulse pressure from about 40 mm to about 10 mm. […] If cardiac output was basically unaffected, reduction in blood pressure would have resulted principally from a reduction in system resistance.
At that time, 40 μg of noradrenaline was introduced.

[30] = system: heart of a juvenile Xenopus laevis frog; test: persistence of beating of isolated frog heart; settings: 10 μg/ml
Procedure: To determine if compound 1436 has such utility, the following experiment was performed. The heart of a juvenile Xenopus laevis frog was dissected from the living animal. The heart was placed into a Petri dish containing Krebs-Ringer buffer with adrenaline 50 μg/ml, and examined with the naked eye. At room temperature, the heart continued beating in a coordinated fashion (atrial beat followed by ventricular beat) for about one hour. In the presence of 10 μg/ml of compound 1436, spontaneous beating persisted up to 24 hours.

[31] = system: stage 59-60 Xenopus tadpole; settings: 10 μg/mL, Table II
[32] = system: human lymphocytes; test: inhibition of mitogen (PHA)-stimulated growth of human T-cells; settings: Homo sapiens, Lymphocyte, read-out: inhibition of blast transformation
Procedure: Specific assays were used to identify steroids with a particular biological activity, such as an assay for inhibition of mitogen-stimulated growth of human T-cells.
Human heparinized blood, freshly collected, was introduced into tissue culture flasks containing 10 μg/ml phytohaemagglutinin (PHA) in RPMI medium with 10% FCS. Various purified steroids were introduced subsequently at concentrations of 1, 5, and 10 μg/ml. Cultures were incubated for 72 hours, after which time colcemid was added to 1 μg/ml. Cultures were maintained for an additional 2 hours, and cells collected. Miotic figures were estimated using standard cytochemical techniques, following Giemsa staining.

[33] = biological target: rabbit NHE3 (Oryctolagus cuniculus, UniProt P26432); settings: 10 μg/ml, acid preloaded 40 mM NH4Cl, FIG. 10
Chain of rabbit NHE3 (P26432 30-832): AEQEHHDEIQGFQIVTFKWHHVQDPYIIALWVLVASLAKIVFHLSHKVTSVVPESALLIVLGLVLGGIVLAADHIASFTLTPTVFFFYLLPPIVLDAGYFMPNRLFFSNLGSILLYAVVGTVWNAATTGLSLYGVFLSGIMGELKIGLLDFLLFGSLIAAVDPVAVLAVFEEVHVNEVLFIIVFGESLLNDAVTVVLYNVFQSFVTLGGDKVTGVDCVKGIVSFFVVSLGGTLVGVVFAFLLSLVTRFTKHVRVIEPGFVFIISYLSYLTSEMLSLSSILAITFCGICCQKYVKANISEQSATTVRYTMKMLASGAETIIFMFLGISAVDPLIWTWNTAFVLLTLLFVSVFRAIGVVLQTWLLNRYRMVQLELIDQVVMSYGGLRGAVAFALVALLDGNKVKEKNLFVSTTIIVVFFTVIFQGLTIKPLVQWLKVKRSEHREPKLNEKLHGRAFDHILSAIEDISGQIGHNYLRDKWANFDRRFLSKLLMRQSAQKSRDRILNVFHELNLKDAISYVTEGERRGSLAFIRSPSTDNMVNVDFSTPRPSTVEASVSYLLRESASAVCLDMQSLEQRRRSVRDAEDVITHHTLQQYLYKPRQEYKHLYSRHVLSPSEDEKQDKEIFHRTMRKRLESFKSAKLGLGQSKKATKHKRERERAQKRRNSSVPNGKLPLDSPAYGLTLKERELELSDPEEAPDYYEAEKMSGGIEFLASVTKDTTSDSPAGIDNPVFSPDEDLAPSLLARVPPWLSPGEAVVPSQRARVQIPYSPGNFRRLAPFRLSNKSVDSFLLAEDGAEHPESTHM
Procedure: Internal pH was measured either following acid loading or in the absence of an acid-loading challenge, with the results shown in FIGS. 1A and 1B.
Specifically, PS120 fibroblasts transfected with rabbit NHE3 were grown in supplemented Dulbecco's-modified Eagle's medium as described by Levine et al., J. Biol. Chem. 268, 1993, 25527-25535. […] For cells not acid-preloaded, the actual internal pH value was monitored as a function of time following addition of squalamine, with the results depicted in FIG. 1B.
PS120 fibroblasts transfected with rabbit NHE3 were grown and acid preloaded by exposure to 40 mM NH4 Cl as described above in conjunction with FIGS. 1A and 1B. Internal cellular pH changes expressed as the rate of pH recovery as a function of restored extracellular sodium ion concentration following exposure to 10 μg/ml of the compound were assayed with the fluorescent dye BCECF-AM as described above.

CC(C)C(CO)(CC[C@@H](C)[C@H]1CC[C@H]2[C@@H]3[C@H](O)C[C@H]4C[C@@H](NCCCNCCCCN)CC[C@]4(C)[C@H]3CC[C@]12C)OS(=O)(=O)O (single isomer, unassigned) [Compound 1437]
anticancer activity ([1]; SKOV3): exhibit anticancer activity | hyperglycemia [2]: caused hyperglycemia in mice | tadpole response ([3]; 10 μg/ml): Epithelium covering the embryonic portions of the animal, such as the tail and antennae, began to slough off in sheets; also recorded: the larval skin was observed to shed off in a sheet

CC(C)CCC[C@@H](C)[C@H]1CC[C@H]2[C@@H]3CC[C@H]4C[C@@H](NCCCNCCCCNCCCN)CC[C@]4(C)[C@H]3CC[C@]12C [Compound 353]
effect on endothelial cord formation ([4]; 0.1 μg/ml): + | effect on endothelial cord formation ([4]; 1.0 μg/ml): + | effect on endothelial cord formation ([4]; 10.0 μg/ml): + | minimal effective concentration ([4]; Homo sapiens, Endothelial cell, Table II, read-out: Minimum Effective Concentration, Cord Formation): 10 µg/mL | vitelline capillary regression, potency in words [5]: no effect on the chick embryo capillary bed | IC50 [6]: 3 µg/mL (≈ 5.24 µM) | IC50 [7]: 1.9 µg/mL (≈ 3.32 µM) | mode of cell death [8]: apoptotic cell death has been induced | MIC [9]: 32 µg/mL (≈ 55.8 µM) | MIC [10]: 128 µg/mL (≈ 223 µM) | MIC [11]: 64 µg/mL (≈ 112 µM) | MIC [12]: 16 µg/mL (≈ 27.9 µM) | similarity of pharmacologic activity in tadpole assay ([3]; in vivo): effects like those produced by compound 1436

CC(C)[C@@H](CC[C@@H](C)[C@H]1CC[C@H]2[C@@H]3[C@H](O)C[C@H]4C[C@@H](NCCCNCCCCNCCCN)CC[C@]4(C)[C@H]3CC[C@]12C)OS(=O)(=O)O [Compound 1436]
vitelline capillary regression, potency in words [5]: about the same potency as squalamine | impact on tumor volume [13]: no significant impact on tumor volume | cancer cells inhibited in vitro ([1]; SKOV3, 10 μg/ml): INHIBITED | cancer cells inhibited in vitro [14]: INHIBITED | cancer cells inhibited in vitro [15]: INHIBITED | non-transformed cells inhibited in vitro [16]: INHIBITED | cancer cells inhibited in vitro [17]: INHIBITED | non-transformed cells inhibited in vitro [18]: INHIBITED | cancer cells inhibited in vitro [19]: INHIBITED | cancer cells inhibited in vitro [20]: INHIBITED | cancer cells inhibited in vitro [21]: INHIBITED | non-transformed cells inhibited in vitro [22]: INHIBITED | non-transformed cells inhibited in vitro [23]: INHIBITED | survival of mice bearing L1210 leukemia [24]: significant prolongation of life | P-24 Elisa [25]: 9 | viability at 168 h, 0.5 µM ([26]; 0.5 μM): 91% | viability at 168 h, 10 µM ([26]; 10 μM): 95% | viability at 168 h ([26]; 10 μg/ml, read-out: lymphocyte viability): 95% | viability at 168 h, 20 µM ([26]; 20 μM): 90.1% | hyperglycemia [2]: caused hyperglycemia in mice | growth of human coronary artery smooth muscle [27]: suppress in vitro the growth | reduction in growth ([28]; 1 mg/kg QTD i.p.): about 10% | suppression of growth of mice ([28]; 10 mg/kg QTD i.p., after 6 doses, about 1 month): growth was almost completely inhibited | apparent health of treated animals ([28]; mouse, in vivo): all were active, normally proportioned, not-cachectic, and in excellent apparent clinical health | duration of effect followed without significant change [29]: 30 min | heart rate [29]: no significant increase in heart rate | atrial pacemaker and conduction [30]: remained vigorous | mode of cell death [8]: same highly selective mechanism of killing | Tadpole M (merarocytes) [31]: + | time to death of tadpole ([3]; 10 μg/ml): about 2 hours | tadpole response ([3]; 10 μg/ml): Gradual reduction in overall activity. Heart beat remained strong, suggesting nervous system depression. Melanocytes over head and tail began to swell, first exhibiting visibly distinct nuclei, followed by rupture into fragments | inhibition at 10 µg/mL [32]: > 75% | inhibition of rabbit NHE3 (rate of pH recovery) [33]: inhibit rabbit NHE3

Source: patent publication US5763430A, “Method of treating a viral infection by administering a steroid compound” (priority 1995, dated 1998)
